Legend:
Assay type in all cases: cell-based, human
CD38 = CD38 expression by immunofluorescence in MM cell lines; conditions: RPMI-8226, MOLP-8; 2.5 μM; relative to DMSO control
Procedure: Immunofluorescence After appropriate treatments in vitro, cells were placed on glass slides coated with poly-L-lysine followed by 15 minutes incubation in a cell culture incubator. Cells were fixed with 4% paraformaldehyde for 30 minutes, blocked with BSA 100 μg/mL for 1 h at room temperature and incubated with a primary antibody (anti-CD38 antibody (1:100)) overnight at 4° C. The incubation with the anti-mouse secondary antibody, labelled with Alexa Fluor 488, was performed in darkness for 1 h at room temperature. After three washes for 5 min in PBS, nuclei were stained with DAPI (Sigma) 1:1000 in PBS for 5 min at room temperature. Finally, cells were washed three times for 10 min in PBS and slides were then mounted using VECTASHIELD Mounting Medium (Vector Laboratories, Burlingame, CA). Fluorescent images were acquired with a LEICA SP5 DMI-6000B confocal microscope (Leica, Wetzlar, Germany) with a 63.0× lens zoomed in 6×.

CD38 mRNA = CD38 mRNA by RT-qPCR in MM cell lines; conditions: MM1.S, JJN3, RPMI-8226; 1 and 2.5 μM, 36 hours
Procedure: Real time quantitative PCR (RT-qPCR) Total RNA was isolated using the RNeasy Mini Kit (Qiagen, Hilden, Germany). Following reverse transcription, PCR was performed using TaqMan Gene Expression Assays (Applied Biosystems, Foster City, CA, USA): CD38 (Hs01120071_m1), MICA (Hs00741286_m1), MICB (Hs00792952_m1) and GAPDH (Hs99999905_m1). The results were expressed as fold change relative to expression of the target gene in control cells, using endogenous expression of GAPDH for normalization.

MICA [1] = test: MICA expression on MM patients' plasma cells ex vivo; conditions: 6 out of the 9 patients analyzed, 48 hours
Procedure: (§1) For surface staining, cells were incubated with the appropriate antibodies and 7AAD (Immunostep) for 15 min in the dark. Data were acquired using a FACSCalibur cytometer (BD Biosciences) and analyzed using Infinicyt™ software (Cytognos). Specifically, the expression of CD38 or ligands for NK cell activating receptors (MICA, MICB, ULBP1-3, PVR and CD112) in MM cell lines was determined on the viable cell population (7AAD-). In primary myeloma cells, the expression of CD38 was analyzed over the viable myeloma population using the panel CD138-FITC/CD56-PE/7AAD/CD38-APC, whereas MICA/B-AF488/CD56-PE/7AAD/CD38-APC panel was used to determine MICA/B expression. Normalized median fluorescence intensity (MFI) was calculated by dividing median fluorescence obtained with the specific antibody by median fluorescence of the corresponding isotype control. MFI for each treatment was expressed as a percentage relative to the control (100%, cells cultured in media with DMSO).

CD112 = test: Surface expression of NK cell activating ligands by flow cytometry; conditions: RPMI-8226, 48 hours, DMSO = 100
Procedure: as §1
(§2) MM cells (JJN3, MM1.S, RPMI-8226, MOLP-8) were treated with EDO-S101 (1 and 2.5 μm) for 48 hours in accordance with the methods outlined above. After incubation, expression of several ligands for NK cell activating receptors: MICA, MICB, ULBP1, ULPB2, ULPB3, CD155 (PVR) and CD112 (Nectin-2) were measured using flow cytometry. Flow cytometry was then performed in accordance with the methods outlined above to calculate.

CD155 = test: as above; conditions: 48 hours, DMSO = 100
Procedure: as §1, §2

MICA [2] = test: as above; conditions: 48 hours, DMSO = 100
Procedure: as §1, §2

MICB = test: as above; conditions: 48 hours, DMSO = 100
Procedure: as §1, §2

ULBP1 = test: as above; conditions: MM cell lines tested; not basally expressed; data not shown
Procedure: as §1, §2

ULBP2 = test: as above; conditions: 48 hours, DMSO = 100
Procedure: as §1, §2

ULBP3 = test: as above; conditions: RPMI-8226, 48 hours, DMSO = 100
Procedure: as §1, §2

## Cn1c(CCCCCCC(=O)NO)nc2cc(N(CCCl)CCCl)ccc21 [EDO-S101, 7-(5-(bis(2-chloroethyl)amino)-1-methyl-1H-benzo[d]imidazol-2-yl)-N-hydroxyheptanamide]
CD38
  CD38 expression, immunofluorescence: increased
CD38 mRNA
  CD38 expression at the transcriptional level (qPCR): increased
MICA [1]
  expression of MICA in tinostamustine-treated vs DMSO-treated patient cells: at least twice
CD112; EDO-S101 1 μM
  Normalized MFI CD112: 116.6 ± 13.2%
CD112; EDO-S101 2.5 μM
  Normalized MFI CD112: 142.8 ± 11.5%
CD155; JJN3, EDO-S101 1 μM
  Normalized MFI CD155: 161.4 ± 14.3%
CD155; JJN3, EDO-S101 2.5 μM
  Normalized MFI CD155: 156.8 ± 24.7%
CD155; MM1.S, EDO-S101 1 μM
  Normalized MFI CD155: 113.3 ± 3.9%
CD155; MM1.S, EDO-S101 2.5 μM
  Normalized MFI CD155: 111.5 ± 15.3%
CD155; RPMI-8226, EDO-S101 1 μM
  Normalized MFI CD155: 123.9 ± 6.1%
CD155; RPMI-8226, EDO-S101 2.5 μM
  Normalized MFI CD155: 168.2 ± 24.8%
MICA [2]; JJN3, EDO-S101 1 μM
  Normalized MFI MICA: 162.9 ± 11.8%
MICA [2]; JJN3, EDO-S101 2.5 μM
  Normalized MFI MICA: 168.8 ± 10.3%
MICA [2]; MM1.S, EDO-S101 1 μM
  Normalized MFI MICA: 131.9 ± 37.6%
MICA [2]; MM1.S, EDO-S101 2.5 μM
  Normalized MFI MICA: 128 ± 38.2%
MICA [2]; MOLP-8, EDO-S101 1 μM
  Normalized MFI MICA: 112.9 ± 5.7%
MICA [2]; MOLP-8, EDO-S101 2.5 μM
  Normalized MFI MICA: 131.7 ± 13.4%
MICA [2]; RPMI-8226, EDO-S101 1 μM
  Normalized MFI MICA: 121.3 ± 5.9%
MICA [2]; RPMI-8226, EDO-S101 2.5 μM
  Normalized MFI MICA: 153.6 ± 16.1%
MICB; JJN3, EDO-S101 1 μM
  Normalized MFI MICB: 137.6 ± 14%
MICB; JJN3, EDO-S101 2.5 μM
  Normalized MFI MICB: 144.9 ± 28%
MICB; MM1.S, EDO-S101 1 μM
  Normalized MFI MICB: 113.8 ± 7.6%
MICB; MM1.S, EDO-S101 2.5 μM
  Normalized MFI MICB: 113.4 ± 3.3%
MICB; MOLP-8, EDO-S101 1 μM
  Normalized MFI MICB: 107.8 ± 0.5%
MICB; MOLP-8, EDO-S101 2.5 μM
  Normalized MFI MICB: 119.3 ± 7.7%
MICB; RPMI-8226, EDO-S101 1 μM
  Normalized MFI MICB: 107.1 ± 6.6%
MICB; RPMI-8226, EDO-S101 2.5 μM
  Normalized MFI MICB: 131.3 ± 9.4%
ULBP1
  ULBP1 expression: did not change
ULBP2; JJN3, EDO-S101 1 μM
  Normalized MFI ULBP2: 110.5 ± 9.5%
ULBP2; JJN3, EDO-S101 2.5 μM
  Normalized MFI ULBP2: 112.9 ± 13.4%
ULBP2; MM1.S, EDO-S101 1 μM
  Normalized MFI ULBP2: 95.8 ± 4.5%
ULBP2; MM1.S, EDO-S101 2.5 μM
  Normalized MFI ULBP2: 96.3 ± 12.3%
ULBP2; MOLP-8, EDO-S101 1 μM
  Normalized MFI ULBP2: 116.1 ± 4.6%
ULBP2; MOLP-8, EDO-S101 2.5 μM
  Normalized MFI ULBP2: 124.7 ± 13.5%
ULBP3; EDO-S101 1 μM
  Normalized MFI ULBP3: 111.7 ± 14.8%
ULBP3; EDO-S101 2.5 μM
  Normalized MFI ULBP3: 129.6 ± 20.2%

— patent publication US20240252472A1, “COMBINATIONS FOR TREATING CANCER” (Purdue Pharma L.P., priority 2023, published 2024)
